The test system of one series is Secretion of ApoB. Briefly: Quantification of the secretion of ApoB in HepG2 cells. It is filed as cell-based. The note with it: Homo sapiens, HepG2, 24 h, 24 hours of incubation with test compound, immunoprecipitation of apoB from medium, read-out: pIC50 value (=-log IC50 value), secretion of ApoB (converted). The method in brief:
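At 70% confluency, HepG2 cells in MEM with 10% FCS received compound or DMSO carrier (0.4% final) for 24 h. Secreted apoB in cleared medium immunoprecipitated with sheep anti-apoB then rabbit anti-sheep antibody (24 h each, 8° C); pellet radioactivity counted by liquid scintillation; IC50 expressed as pIC50.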

As a reminder, the IC50 is the midpoint of a concentration-inhibition curve. One may read the melting point as the temperature, or range, at which the solid turns liquid. Compound `CC(C)n1ncn(-c2ccc(N3CCN(C(C(=O)Nc4ccc5c(c4)CCC5)c4cccnc4)CC3)cc2)c1=O` (centres unmarked) [Compound 209] showed a melting point of 198 to 200 °C. Further, in the series with Secretion of ApoB, the IC50 is 31.6 to 316 nM.

The record behind these values is patent US7504400B2, “MTP inhibiting aryl piperydines or piperazines substituted with 5-membered heterocycles” (Janssen Pharmaceutica N.V., priority 2004, dated 2009).
